According to PubChem BioAssay (NCI):
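GI50: concentration for 50% inhibition of growth. TGI marks complete inhibition of growth.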

Key:
Assay in all cases: NCI anticancer screen, dose series, 384-well format; in the data active means GI50 below about 0.43 µM; inactive means the rest
786-0 renal = test system: 786-0 renal
A498 renal = test system: A498 renal
A549 NSCLC = test system: A549 NSCLC
ACHN renal = test system: ACHN renal
BT-549 breast = test system: BT-549 breast
CAKI-1 renal = test system: CAKI-1 renal
CCRF-CEM leukemia = test system: CCRF-CEM leukemia
COLO 205 colon = test system: COLO 205 colon
DU-145 prostate = test system: DU-145 prostate
EKVX NSCLC = test system: EKVX NSCLC
HCC-2998 colon = test system: HCC-2998 colon
HCT-15 colon = test system: HCT-15 colon
HL-60(TB) leukemia = test system: HL-60(TB) leukemia
HOP-62 NSCLC = test system: HOP-62 NSCLC
HOP-92 NSCLC = test system: HOP-92 NSCLC
HS 578T breast = test system: HS 578T breast
HT29 colon = test system: HT29 colon
KM12 colon = test system: KM12 colon
LOX IMVI melanoma = test system: LOX IMVI melanoma
M14 melanoma = test system: M14 melanoma
MALME-3M melanoma = test system: MALME-3M melanoma
MCF7 breast = test system: MCF7 breast
MDA-MB-231 breast = test system: MDA-MB-231 breast
MDA-MB-435 melanoma = test system: MDA-MB-435 melanoma
MDA-MB-468 breast = test system: MDA-MB-468 breast
MOLT-4 leukemia = test system: MOLT-4 leukemia
NCI-H23 lung = test system: NCI-H23 lung
NCI-H322M lung = test system: NCI-H322M lung
NCI-H460 NSCLC = test system: NCI-H460 NSCLC
NCI-H522 lung = test system: NCI-H522 lung
NCI/ADR-RES ovarian = test system: NCI/ADR-RES ovarian
OVCAR-3 ovarian = test system: OVCAR-3 ovarian
OVCAR-4 ovarian = test system: OVCAR-4 ovarian
OVCAR-8 ovarian = test system: OVCAR-8 ovarian
PC-3 prostate = test system: PC-3 prostate
RPMI-8226 leukemia = test system: RPMI-8226 leukemia
RXF 393 renal = test system: RXF 393 renal
SF-268 CNS = test system: SF-268 CNS
SF-539 CNS = test system: SF-539 CNS
SK-MEL-2 melanoma = test system: SK-MEL-2 melanoma
SK-MEL-28 melanoma = test system: SK-MEL-28 melanoma
SK-MEL-5 melanoma = test system: SK-MEL-5 melanoma
SK-OV-3 ovarian = test system: SK-OV-3 ovarian
SN12C renal = test system: SN12C renal
SNB-19 CNS = test system: SNB-19 CNS
SNB-75 CNS = test system: SNB-75 CNS
SR leukemia = test system: SR leukemia
T-47D breast = test system: T-47D breast
TK-10 renal = test system: TK-10 renal
U251 glioblastoma = test system: U251 glioblastoma
UACC-257 melanoma = test system: UACC-257 melanoma
UACC-62 melanoma = test system: UACC-62 melanoma

CCOC(=O)c1c(NN2CCN(CC(F)(F)F)CC2)oc(/C=C2\C=Nc3ncccc32)c1O
5.08 µM: TGI (BT-549 breast)
14.9 µM: TGI (SK-MEL-5 melanoma)
active: GI50 (COLO 205 colon) 0.373 µM | GI50 (SR leukemia) 0.222 µM
4.4 µM: TGI (NCI-H460 NSCLC)
16.7 µM: TGI (SK-MEL-28 melanoma)
29.4 µM: TGI (MDA-MB-435 melanoma)
10.5 µM: TGI (M14 melanoma)
18.5 µM: TGI (NCI-H23 lung)
9.8 µM: TGI (SF-539 CNS)
3.91 µM: TGI (RXF 393 renal)
4.86 µM: TGI (SK-MEL-2 melanoma)
9.71 µM: TGI (MDA-MB-468 breast)
9.54 µM: TGI (MALME-3M melanoma)
3.37 µM: TGI (COLO 205 colon) | TGI (MOLT-4 leukemia)
2.31 µM: TGI (CCRF-CEM leukemia)
36.2 µM: TGI (UACC-257 melanoma)
inactive: GI50 (786-0 renal) 3.39 µM | GI50 (A498 renal) 2.75 µM | GI50 (A549 NSCLC) 5.31 µM | GI50 (ACHN renal) 5.86 µM | GI50 (BT-549 breast) 2.44 µM | GI50 (CAKI-1 renal) 3.83 µM | GI50 (CCRF-CEM leukemia) 0.911 µM | GI50 (DU-145 prostate) 3.08 µM | GI50 (EKVX NSCLC) 7.51 µM | GI50 (HCC-2998 colon) 1.61 µM | GI50 (HCT-15 colon) 5.2 µM | GI50 (HL-60(TB) leukemia) 1.18 µM | GI50 (HOP-62 NSCLC) 2.86 µM | GI50 (HOP-92 NSCLC) > 100 µM | GI50 (HS 578T breast) 1.55 µM | GI50 (HT29 colon) 2.5 µM | GI50 (KM12 colon) 3.28 µM | GI50 (LOX IMVI melanoma) 3.14 µM | GI50 (M14 melanoma) 3.36 µM | GI50 (MALME-3M melanoma) 3.05 µM | GI50 (MCF7 breast) 3.69 µM | GI50 (MDA-MB-231 breast) 5.8 µM | GI50 (MDA-MB-435 melanoma) 10.8 µM | GI50 (MDA-MB-468 breast) 3.2 µM | GI50 (MOLT-4 leukemia) 1.88 µM | GI50 (NCI-H23 lung) 4.83 µM | GI50 (NCI-H322M lung) 4.05 µM | GI50 (NCI-H460 NSCLC) 2.23 µM | GI50 (NCI-H522 lung) 1.14 µM | GI50 (NCI/ADR-RES ovarian) > 100 µM | GI50 (OVCAR-3 ovarian) 2.82 µM | GI50 (OVCAR-4 ovarian) 96.1 µM | GI50 (OVCAR-8 ovarian) 5.48 µM | GI50 (PC-3 prostate) 3.64 µM | GI50 (RPMI-8226 leukemia) 1.96 µM | GI50 (RXF 393 renal) 1.94 µM | GI50 (SF-268 CNS) 4.06 µM | GI50 (SF-539 CNS) 2.84 µM | GI50 (SK-MEL-2 melanoma) 2.62 µM | GI50 (SK-MEL-28 melanoma) 5.23 µM | GI50 (SK-MEL-5 melanoma) 2.67 µM | GI50 (SK-OV-3 ovarian) 2.72 µM | GI50 (SN12C renal) 5.42 µM | GI50 (SNB-19 CNS) 8.03 µM | GI50 (SNB-75 CNS) 6.66 µM | GI50 (T-47D breast) > 100 µM | GI50 (TK-10 renal) > 100 µM | GI50 (U251 glioblastoma) 2.76 µM | GI50 (UACC-257 melanoma) 17.4 µM | GI50 (UACC-62 melanoma) 2.12 µM
8.44 µM: TGI (786-0 renal)
4.22 µM: TGI (RPMI-8226 leukemia)
18.9 µM: TGI (SNB-75 CNS)
6.01 µM: TGI (HCC-2998 colon)
9.4 µM: TGI (HOP-62 NSCLC)
10.2 µM: TGI (MCF7 breast)
3.96 µM: TGI (UACC-62 melanoma)
9.61 µM: TGI (LOX IMVI melanoma)
2.41 µM: TGI (HL-60(TB) leukemia)
8.02 µM: TGI (KM12 colon)
3.21 µM: TGI (HS 578T breast)
0.488 µM: TGI (SR leukemia)
> 100 µM: TGI (A498 renal) | TGI (A549 NSCLC) | TGI (ACHN renal) | TGI (CAKI-1 renal) | TGI (DU-145 prostate) | TGI (EKVX NSCLC) | TGI (HCT-15 colon) | TGI (HOP-92 NSCLC) | TGI (HT29 colon) | TGI (MDA-MB-231 breast) | TGI (NCI-H322M lung) | TGI (NCI-H522 lung) | TGI (NCI/ADR-RES ovarian) | TGI (OVCAR-3 ovarian) | TGI (OVCAR-4 ovarian) | TGI (OVCAR-8 ovarian) | TGI (PC-3 prostate) | TGI (SK-OV-3 ovarian) | TGI (SN12C renal) | TGI (SNB-19 CNS) | TGI (T-47D breast) | TGI (TK-10 renal) | TGI (U251 glioblastoma)
11.6 µM: TGI (SF-268 CNS)
